These results are taken from ChEMBL document CHEMBL1909046, “DrugMatrix in vitro pharmacology data”.

Structures are written as SMILES. pIC50, pKi: −log10 of the molar value.

The target in assay [1] is T1, Neuropeptide Y receptor type 1 (Homo sapiens, UniProt P25929). Further: in other assays of this panel Not Active means under 50% inhibition at 10 µM.
T1 sequence (P25929 whole entry): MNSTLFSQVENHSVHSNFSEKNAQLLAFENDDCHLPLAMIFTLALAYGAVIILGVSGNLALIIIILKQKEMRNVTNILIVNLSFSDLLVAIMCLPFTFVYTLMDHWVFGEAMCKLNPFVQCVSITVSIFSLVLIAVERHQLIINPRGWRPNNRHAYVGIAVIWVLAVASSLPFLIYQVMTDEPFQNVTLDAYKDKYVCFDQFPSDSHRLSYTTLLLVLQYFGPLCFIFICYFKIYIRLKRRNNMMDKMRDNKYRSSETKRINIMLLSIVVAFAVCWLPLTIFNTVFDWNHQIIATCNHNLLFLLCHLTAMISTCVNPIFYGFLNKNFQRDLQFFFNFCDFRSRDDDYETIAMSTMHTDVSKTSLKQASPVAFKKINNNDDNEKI
The assay is classed as cell membranes, Membrane. As to conditions: sk-n-mc.

The nature of assay [2]: DRUGMATRIX: GABAA, Muscimol, Central radioligand binding (ligand: [3H] Muscimol). The assay is classed as cell membranes, Rattus norvegicus, Wistar, Brain, Membrane. Conditions: Not Active = under 50% inhibition at 10 µM.
A further assay deals with D(1A) dopamine receptor (Homo sapiens, UniProt P21728). The experiment in a line: DRUGMATRIX: Dopamine D1 radioligand binding (ligand: [3H] SCH-23390). It is filed as cell membranes, CHO, Membrane. As to conditions: cho; Not Active = under 50% inhibition at 10 µM.
D(1A) dopamine receptor, sequence (P21728 whole entry): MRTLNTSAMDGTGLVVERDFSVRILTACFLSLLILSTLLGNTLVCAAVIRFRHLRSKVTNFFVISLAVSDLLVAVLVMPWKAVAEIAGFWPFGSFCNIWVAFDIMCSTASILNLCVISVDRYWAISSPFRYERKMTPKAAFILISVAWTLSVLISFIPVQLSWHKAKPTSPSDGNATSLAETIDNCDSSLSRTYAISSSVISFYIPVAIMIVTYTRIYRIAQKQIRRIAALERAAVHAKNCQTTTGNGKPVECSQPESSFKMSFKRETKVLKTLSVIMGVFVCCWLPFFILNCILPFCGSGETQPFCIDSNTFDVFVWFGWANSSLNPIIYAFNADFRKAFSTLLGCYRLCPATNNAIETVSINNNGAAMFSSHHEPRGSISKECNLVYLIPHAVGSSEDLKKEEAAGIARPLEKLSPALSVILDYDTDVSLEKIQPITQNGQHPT
The target of assay [3] is T2, 5-hydroxytryptamine receptor 2C (Homo sapiens, UniProt P28335).
T2 sequence (P28335 whole entry): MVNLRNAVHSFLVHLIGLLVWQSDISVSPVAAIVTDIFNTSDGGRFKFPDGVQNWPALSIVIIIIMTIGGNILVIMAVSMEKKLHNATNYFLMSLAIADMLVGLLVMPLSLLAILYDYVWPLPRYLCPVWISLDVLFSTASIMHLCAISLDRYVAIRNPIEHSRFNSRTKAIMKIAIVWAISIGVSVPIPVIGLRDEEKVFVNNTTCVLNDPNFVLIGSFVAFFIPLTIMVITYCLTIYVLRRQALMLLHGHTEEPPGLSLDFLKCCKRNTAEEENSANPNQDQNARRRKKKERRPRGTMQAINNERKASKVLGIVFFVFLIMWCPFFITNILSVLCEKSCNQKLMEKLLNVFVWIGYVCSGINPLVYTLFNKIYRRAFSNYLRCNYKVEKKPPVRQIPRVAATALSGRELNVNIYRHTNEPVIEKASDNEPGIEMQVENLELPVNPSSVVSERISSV
The assay can be described thus: DRUGMATRIX: Serotonin (5-Hydroxytryptamine) 5-HT2C radioligand binding (ligand: [3H] Mesulergine). As to conditions: Not Active = under 50% inhibition at 10 µM; for IC50: cho-k1; for pIC50: read-out: IC50; for pKi: read-out: Ki. It is filed as cell membranes, CHO-K1, Membrane.

In assay [4] the target is T3, Alpha-1D adrenergic receptor (Homo sapiens, UniProt P25100). Further: in other assays of this panel Not Active means under 50% inhibition at 10 µM.
T3 sequence (P25100 whole entry): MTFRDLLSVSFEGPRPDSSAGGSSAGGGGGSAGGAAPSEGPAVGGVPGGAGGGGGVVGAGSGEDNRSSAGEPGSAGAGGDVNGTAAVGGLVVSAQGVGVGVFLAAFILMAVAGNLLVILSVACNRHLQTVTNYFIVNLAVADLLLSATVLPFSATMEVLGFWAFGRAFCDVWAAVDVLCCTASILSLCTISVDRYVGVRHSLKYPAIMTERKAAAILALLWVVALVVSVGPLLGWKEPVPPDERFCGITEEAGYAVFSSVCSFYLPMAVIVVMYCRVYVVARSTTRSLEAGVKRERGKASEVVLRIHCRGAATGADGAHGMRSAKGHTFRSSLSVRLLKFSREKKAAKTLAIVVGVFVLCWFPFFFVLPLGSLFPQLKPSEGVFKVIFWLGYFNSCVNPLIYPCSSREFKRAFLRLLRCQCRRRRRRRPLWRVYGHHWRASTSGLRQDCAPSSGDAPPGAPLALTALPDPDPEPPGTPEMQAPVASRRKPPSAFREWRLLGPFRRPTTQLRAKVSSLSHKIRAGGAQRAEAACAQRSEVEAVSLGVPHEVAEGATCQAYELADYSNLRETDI
The assay is classed as cell membranes, HEK293, Membrane. Conditions: for IC50: hek293; for pIC50: read-out: IC50; for pKi: read-out: Ki.

In assay [5] the target is T4, Alpha-1A adrenergic receptor (Rattus norvegicus, UniProt P43140).
T4 sequence (P43140 whole entry): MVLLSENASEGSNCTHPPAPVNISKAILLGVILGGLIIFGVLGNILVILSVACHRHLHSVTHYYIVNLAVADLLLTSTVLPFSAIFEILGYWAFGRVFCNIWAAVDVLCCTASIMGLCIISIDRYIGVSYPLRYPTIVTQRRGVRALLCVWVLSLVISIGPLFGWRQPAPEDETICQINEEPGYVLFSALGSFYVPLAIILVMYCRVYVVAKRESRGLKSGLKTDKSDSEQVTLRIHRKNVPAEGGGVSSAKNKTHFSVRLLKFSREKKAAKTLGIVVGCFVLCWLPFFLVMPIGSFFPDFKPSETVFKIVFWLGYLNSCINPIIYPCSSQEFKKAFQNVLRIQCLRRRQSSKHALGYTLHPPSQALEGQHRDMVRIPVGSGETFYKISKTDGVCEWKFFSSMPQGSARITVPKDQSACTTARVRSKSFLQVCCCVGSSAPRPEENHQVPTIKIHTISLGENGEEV
The experiment in a line: DRUGMATRIX: Alpha-1A adrenergic receptor radioligand binding (ligand: prazosin). It is filed as cell membranes, Wistar, Submaxillary gland, Membrane. Conditions: Not Active = under 50% inhibition at 10 µM; for pIC50: read-out: IC50; for pKi: read-out: Ki.

In the case of `CC(C)(C)NC(=O)[C@@H]1C[C@@H]2CCCC[C@@H]2CN1C[C@@H](O)[C@H](Cc1ccccc1)NC(=O)[C@H](CC(N)=O)NC(=O)c1ccc2ccccc2n1`, the IC50 entry (in assay [1]; in assay [2]; at D(1A) dopamine receptor; in assay [3]; in assay [4]; in assay [5]) was “Not Active” in each case. The Ki entry in assay [2] is “Not Active”.

For `CC1(C)O[C@@H]2C[C@H]3[C@@H]4CCC5=CC(=O)C=C[C@]5(C)[C@@]4(F)[C@@H](O)C[C@]3(C)[C@]2(C(=O)CO)O1` [TRIAMCINOLONE ACETONIDE], the IC50 entry (in assay [1]; in assay [2]; on D(1A) dopamine receptor; in assay [3]; in assay [4]; in assay [5]) was “Not Active” throughout. Further, the Ki result in assay [2] is reported as “Not Active”.

As for `Cc1cccc(N(C)C(=S)Oc2ccc3ccccc3c2)c1` [TOLNAFTATE], the IC50 entry (in assay [1]; in assay [2]; at D(1A) dopamine receptor; in assay [3]; in assay [4]; in assay [5]) was “Not Active” each time. The Ki entry in assay [2] is reported as “Not Active”.

In the case of `C[C@@H]1CN(c2c(F)c(N)c3c(=O)c(C(=O)O)cn(C4CC4)c3c2F)C[C@H](C)N1` [SPARFLOXACIN], the IC50 entry (in assay [1]; in assay [2]; on D(1A) dopamine receptor; in assay [3]; in assay [4]; in assay [5]) was “Not Active” throughout. Moreover, the Ki result in assay [2] was “Not Active”.

Take `Cn1ccnc1S` [METHIMAZOLE]: the IC50 entry (in assay [1]; in assay [2]; on D(1A) dopamine receptor; in assay [3]; in assay [4]; in assay [5]) was “Not Active” each time. The Ki entry in assay [2] is “Not Active”.

For the compound `CN1CCN(CCCN2c3ccccc3Sc3ccc(Cl)cc32)CC1` [PROCHLORPERAZINE], the IC50 entry in assay [1] is on record as “Not Active”. For the same compound, the pIC50 was 7.47 in assay [4] and 7.49 in assay [5]. Besides, the pKi was 7.80 in assay [4] and 7.89 in assay [5].

For the compound `C=CCC1(C(C)CCC)C(=O)NC(=O)NC1=O` (stereo not drawn) [SECOBARBITAL], the IC50 result (in assay [1]; in assay [2]; at D(1A) dopamine receptor; in assay [3]; in assay [4]; in assay [5]) was “Not Active” each time. Besides, the Ki result in assay [2] is “Not Active”.

Consider `N[C@@H](Cc1ccc(N(CCCl)CCCl)cc1)C(=O)O`, for which the IC50 entry (in assay [1]; in assay [2]; on D(1A) dopamine receptor; in assay [3]; in assay [4]; in assay [5]) was “Not Active” in each case. The Ki result in assay [2] is recorded as “Not Active”.

`Nc1nc2ccc(OC(F)(F)F)cc2s1` [RILUZOLE]: the IC50 result (in assay [1]; in assay [2]; on D(1A) dopamine receptor; in assay [3]; in assay [4]; in assay [5]) was “Not Active” each time. The Ki result in assay [2] is reported as “Not Active”.

Turning to `N[C@@H]1[C@H]2CN(c3nc4c(cc3F)c(=O)c(C(=O)O)cn4-c3ccc(F)cc3F)C[C@@H]12` [TROVAFLOXACIN], the IC50 entry (in assay [1]; in assay [2]; at D(1A) dopamine receptor; in assay [3]; in assay [4]; in assay [5]) was “Not Active” each time. Besides, the Ki entry in assay [2] is given as “Not Active”.

In the case of `COc1c(C)c2c(c(O)c1C/C=C(\C)CCC(=O)O)C(=O)OC2` [MYCOPHENOLIC ACID], the IC50 entry (in assay [1]; in assay [2]; at D(1A) dopamine receptor; in assay [3]; in assay [4]; in assay [5]) was “Not Active” throughout. Moreover, the Ki entry in assay [2] is recorded as “Not Active”.

`CCCOc1ccccc1-c1nc2nn[nH]c2c(=O)[nH]1` [ZAPRINAST]: the IC50 entry (in assay [1]; in assay [2]; at D(1A) dopamine receptor; in assay [3]; in assay [4]; in assay [5]) was “Not Active” in each case. Moreover, the Ki entry in assay [2] is on record as “Not Active”.

For `Nc1nc2nc[nH]c2c(=S)[nH]1` [THIOGUANINE], the IC50 result (in assay [1]; in assay [2]; at D(1A) dopamine receptor; in assay [3]; in assay [4]; in assay [5]) was “Not Active” in each case. The Ki entry in assay [2] is given as “Not Active”.

Take `Cc1c(C)c2c(c(C)c1O)CCC(C)(COc1ccc(CC3SC(=O)NC3=O)cc1)O2` (stereo not drawn) [TROGLITAZONE]: the IC50 entry (in assay [1]; in assay [2]; at D(1A) dopamine receptor; in assay [3]; in assay [4]; in assay [5]) was “Not Active” each time. For the same compound, the Ki result in assay [2] was “Not Active”.

With `Cc1nc2n(c(=O)c1CCN1CCC(c3noc4cc(F)ccc34)CC1)CCCC2` [RISPERIDONE], in assay [1], the IC50 entry was “Not Active”.

`COc1nc(C)nc(Cl)c1NC1=NCCN1` [MOXONIDINE]: the IC50 result (in assay [1]; in assay [2]; at D(1A) dopamine receptor; in assay [3]; in assay [4]; in assay [5]) was “Not Active” in each case. Further, the Ki entry in assay [2] was “Not Active”.

For `N[C@@H](Cc1cc(I)c(Oc2ccc(O)c(I)c2)c(I)c1)C(=O)O` [LIOTHYRONINE], the IC50 result (in assay [1]; on D(1A) dopamine receptor; in assay [3]; in assay [4]; in assay [5]) was “Not Active” throughout.

With `CCCCc1oc2ccccc2c1C(=O)c1cc(I)c(OCCN(CC)CC)c(I)c1` [AMIODARONE], the IC50 entry in assay [1], in assay [4] and in assay [5] was “Not Active” each time.

For `CC(C)N1CCN(c2ccc(OCC3COC(Cn4cncn4)(c4ccc(Cl)cc4Cl)O3)cc2)CC1` (stereo not drawn) [TERCONAZOLE], the IC50 result in assay [1] and in assay [2] was “Not Active” throughout. For the same compound, the Ki result in assay [2] is on record as “Not Active”. Besides, the pIC50 is 5.16 in assay [3], 4.84 in assay [4] and 4.88 in assay [5]. Besides, the results for the pKi in assay [3], in assay [4] and in assay [5] were 5.44, 5.15 and 5.27, respectively.

Regarding `CC/C(=C(\c1ccccc1)c1ccc(OCCN(C)C)cc1)c1ccccc1` [TAMOXIFEN], the IC50 result in assay [1] is on record as “Not Active”. Also, the pIC50 in assay [3] was 6.34; in assay [4] it was 5.30; in assay [5], 4.66. In addition, the results for the pKi in assay [3], in assay [4] and in assay [5] were 6.62, 5.61 and 5.05, respectively.

One may read the pIC50 as the IC50 on a negative log10 scale, so that one unit is a factor of ten. As a reminder, the pKi is −log10 of the Ki, conventionally taken in molar units.
